Reference: paper PMC12916490 (Molecular Psychiatry, 2025)

Tests used:
hα1A = target: T1, hα1A (Homo sapiens, UniProt P35348); test: Radioligand binding, hα1A receptor ([3H]prazosin)
T1 construct: expressed in transfected cells; host or cells: Chinese hamster ovary cells (membrane preparation)
T1 sequence (P35348 1-466): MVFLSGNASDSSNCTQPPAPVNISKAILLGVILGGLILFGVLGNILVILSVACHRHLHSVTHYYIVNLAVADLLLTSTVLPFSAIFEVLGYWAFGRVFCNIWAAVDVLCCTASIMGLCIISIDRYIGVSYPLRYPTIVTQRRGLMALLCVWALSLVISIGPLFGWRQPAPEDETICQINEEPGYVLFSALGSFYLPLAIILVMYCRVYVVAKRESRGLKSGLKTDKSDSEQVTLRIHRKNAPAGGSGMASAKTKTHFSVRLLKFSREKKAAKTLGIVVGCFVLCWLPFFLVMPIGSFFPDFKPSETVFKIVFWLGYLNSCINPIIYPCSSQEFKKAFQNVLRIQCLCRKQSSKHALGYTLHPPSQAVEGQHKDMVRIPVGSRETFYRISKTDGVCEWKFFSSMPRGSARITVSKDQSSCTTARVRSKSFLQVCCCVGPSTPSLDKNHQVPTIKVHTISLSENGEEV
Procedure: Binding affinities at human monoamine receptors and transporters were assessed as previously reported. A detailed description of the methodology is provided in the Supplementary information.
Data analysis was performed with Prism software (version 10.1.2, GraphPad Software, Boston, MA, USA). The IC50 values from the radioligand binding assays were determined by nonlinear regression, using three independent concentration-response curves fitted to a one-site model. The Cheng-Prusoff equation was used to calculate Kᵢ values for the competing ligands. EC50 values were determined by applying nonlinear regression to concentration-response curves. Bias factors (β) were calculated based on the relative intrinsic activity approach. More detailed information can be found in the Supplementary information. Mean values for total number of HTR, change in body temperature from pre to post session (Δ°C), and total distance traveled (cm) for each drug dose were compared (p < 0.05) via Welch’s ANOVA with Dunnett’s T3 post test, comparing all doses to respective vehicle controls (0 mg/kg). Welch’s ANOVA with Dunnett’s T3 post test was also used to compare drug concentrations, but the data were compared to DOM in this case. Dose–response relationships for HTR and locomotor activities were plotted using bell-shaped curve fits, while temperature change data were plotted using four-parameter non-linear regression curve fits. The ascending phase of the HTR curve for each drug was used to determine ED50 potency values from four parameter non-linear regression fits. For combined DOM and DOAM administration, the plasma, brain tissue, and brain dialysate drug concentrations were compared using paired t-tests (p < 0.05). Ratios were compared using Holm-Sidak’s post hoc test following a repeated-measures one-way ANOVA (F (1.709, 6.835) = 70.80; p < 0.0001).
3.1 Assessment of receptor and transporter binding affinities
Membrane preparations were prepared from cells transfected with the respective target. The membrane preparations were then incubated with selective radioligands at concentrations equal to the corresponding Kd and displacement of the ligand by the drugs was measured. The difference between total binding and nonspecific binding (determined in the presence of selective competitors) was defined as specific binding of the radioligand to the target receptor. The following transfected cell lines were used for the binding assays: HEK 293 cells (h5-HT1A, h5-HT2A, h5-HT2B, h5-HT2C, and hD2 receptors, hDAT, hNET, and hSERT), Chinese hamster ovary cells (hα 1A receptor), and Chinese hamster lung cells (hα 2A receptor).
3.1.1 Membrane preparations for receptor and transporter binding
For producing membrane preparations, transfected cells were harvested with trypsin/EDTA, washed with ice-cold phosphate buffered saline, and then pelleted by centrifugation (210 × g for 5 min at 4 °C). The pellets were frozen and stored at -80 °C until use. Frozen pellets were resuspended in 20 m L (receptor binding) or 400 m L (transporter binding) buffer (20 mM HEPES -NaOH, 10 mM EDTA, pH 7.4), and homogenized at 1,100 × g for 20 s (receptor binding) or 560 × g for 15 s (transporter binding); the homogenates were then centrifuged at 48,000 × g for 30 min at 4 °C. For receptor binding assays, the supernatants were discarded and the pellets were resuspended in 20 mL buffer (20 mM HEPES-NaOH, 0.1 mM EDTA, pH 7.4) and homogenized at 1 ,100 × g for 20 s. Centrifugation and discarding of the supernatant were repeated once, and the final pellet was then resuspended in buffer and homogenized.
3.1.2 Serotonin 5-HT1A and 5-HT2A receptor binding
Competitive binding at the h5-HT1A and h5-HT2A receptor was determined using 0.90 nM [ 3H]8-hydroxy-2-(di-n-propylamine)tetralin ([ 3H]8-OH-DPAT; h5-HT1A receptor agonist) and 0.40 nM [3H]ketanserin (h5-HT2 receptor antagonist) as radioligands. The density and affinity of [ 3H]8-OH-DPAT […]

h5-HT2B [1] = target: T2, h5-HT2B (Homo sapiens, UniProt P41595); test: Radioligand binding, h5-HT2B receptor ([3H]LSD)
T2 sequence (P41595 whole entry): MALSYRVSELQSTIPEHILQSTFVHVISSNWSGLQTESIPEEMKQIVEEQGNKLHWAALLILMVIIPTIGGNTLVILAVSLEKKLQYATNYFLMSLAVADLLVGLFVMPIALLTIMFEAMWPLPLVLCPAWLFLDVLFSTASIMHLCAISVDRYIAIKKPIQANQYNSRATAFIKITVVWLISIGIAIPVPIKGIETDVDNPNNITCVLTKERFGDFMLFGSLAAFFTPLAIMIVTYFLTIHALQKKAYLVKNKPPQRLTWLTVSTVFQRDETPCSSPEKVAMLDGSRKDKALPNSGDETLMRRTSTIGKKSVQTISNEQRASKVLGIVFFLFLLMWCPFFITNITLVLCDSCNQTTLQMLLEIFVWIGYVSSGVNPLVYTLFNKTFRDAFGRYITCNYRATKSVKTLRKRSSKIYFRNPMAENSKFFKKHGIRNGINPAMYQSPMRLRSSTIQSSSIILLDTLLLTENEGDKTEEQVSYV

h5-HT2A = h5-HT2A (Homo sapiens, UniProt P28223); test: IP1 formation (Gαq-mediated signaling), h5-HT2A; format: cell-based; set-up: expressed in transfected cells; host or cells: HEK 293 cells (membrane preparation); conditions: for Emax: read-out: IP1 formation Emax h5-HT2A (95% CI)
h5-HT2A, sequence (P28223 whole entry, looked up): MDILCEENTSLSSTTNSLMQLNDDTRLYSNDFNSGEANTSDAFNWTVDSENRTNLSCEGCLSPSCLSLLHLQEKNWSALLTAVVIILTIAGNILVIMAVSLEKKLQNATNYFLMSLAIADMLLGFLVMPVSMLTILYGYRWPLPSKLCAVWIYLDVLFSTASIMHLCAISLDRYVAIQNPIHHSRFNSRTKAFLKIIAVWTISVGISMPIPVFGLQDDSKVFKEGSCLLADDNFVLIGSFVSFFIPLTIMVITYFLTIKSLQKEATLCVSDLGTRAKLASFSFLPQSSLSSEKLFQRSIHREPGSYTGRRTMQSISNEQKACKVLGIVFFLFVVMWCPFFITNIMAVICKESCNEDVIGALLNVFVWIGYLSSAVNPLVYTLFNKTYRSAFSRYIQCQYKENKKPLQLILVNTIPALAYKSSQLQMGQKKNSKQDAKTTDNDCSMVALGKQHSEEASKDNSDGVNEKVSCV

h5-HT2B [2] = target: T2, h5-HT2B; test: IP1 formation (Gαq-mediated signaling), h5-HT2B; format: cell-based; conditions: for Emax: read-out: IP1 formation Emax h5-HT2B (95% CI), normalized to maximal effect of 5-HT

| SMILES | Ki (hα1A) | Ki (h5-HT2B [1]) | Emax (h5-HT2A) | EC50 (h5-HT2B [2]) | Emax (h5-HT2B [2]) | Agonist type for Gαq signaling at the 5-HT2A receptor (h5-HT2A) | EC50 (h5-HT2A) |
| --- | --- | --- | --- | --- | --- | --- | --- |
| COc1ccc(OC)c(CC(C)N)c1.Cl (stereo not drawn) [2,5-DMA, 2,5-Dimethoxyamphetamine hydrochloride] | 5360 nM | 5180 nM | 99% | 93300 nM | 94% |  |  |
| CCCCCc1cc(OC)c(CC(C)N)cc1OC (stereo not drawn) [DOAM, 4-amyl-2,5-dimethoxyamphetamine] | 2520 nM | 98 nM | 83% | 572 nM | 106% | high efficacy partial agonists | 8.1 nM |
| CCCCc1cc(OC)c(CC(C)N)cc1OC (stereo not drawn) [DOBU, 4-butyl-2,5-dimethoxyamphetamine] | 2100 nM | 162 nM | 90% | 570 nM | 122% | high efficacy partial agonists | 2.8 nM |
| CCc1cc(OC)c(CC(C)N)cc1OC (stereo not drawn) [DOET, 4-ethyl-2,5-dimethoxyamphetamine] | 4010 nM | 174 nM | 93% | 236 nM | 95% | high efficacy partial agonists | 12 nM |
| COc1cc(CC(C)N)c(OC)cc1C (stereo not drawn) [DOM, 4-methyl-2,5-dimethoxyamphetamine] | 7390 nM | 149 nM | 92% | 688 nM | 91% | high efficacy partial agonists | 21 nM |
| CCCc1cc(OC)c(CC(C)N)cc1OC.Cl (stereo not drawn) [DOPR, 4-propyl-2,5-dimethoxyamphetamine hydrochloride] | 6990 nM | 126 nM | 96% | 228 nM | 96% |  | 1.9 nM |
